# Laboratory results as given in US8962627B2, “Oxime derivatives and their use as allosteric modulators of metabotropic glutamate receptors” (Prestwick Chemical, Inc., priority 2009, dated 2015).
# Structures can show the parent of a compound that is named as a salt.
# Test system: not given
# Assay: not given
# Settings: not given
row,melting point,Compound
1,247 to 249 °C,"ON=c1cc(-c2cc3ccccc3cn2)oc2ccccc12 (mixture of isomers) [Example 1, 2-isoquinolin-3-yl-chromen-4-one oxime]"
2,279 to 283 °C,"ON=c1cc(-c2cc3ccccc3cn2)oc2cc(Br)ccc12 (mixture of isomers) [Example 2, 7-bromo-2-isoquinolin-3-yl-chromen-4-one oxime]"
3,266 to 269 °C,"ON=c1cc(-c2cc3ccccc3cn2)oc2ccc(Br)cc12 (mixture of isomers) [Example 4, 6-bromo-2-isoquinolin-3-yl-chromen-4-one oxime]"
4,260 to 264 °C,"Cc1ccc2oc(-c3cc4ccccc4cn3)cc(=NO)c2c1 (mixture of isomers) [Example 5, 2-isoquinolin-3-yl-6-methyl-chromen-4-one oxime]"

# Biological target: T1, human mGluR4 transiently over-expressed in HEK-293 cells (Homo sapiens, UniProt Q14833)
# T1 construct: expressed in transfected cells; host or cells: HEK-293 cells, transient co-transfection by electroporation
# Assay: Human mGluR4 positive allosteric modulator evaluation using Ca++ functional assay
# Format: cell-based
# Settings: HEK-293 cells co-transfected with hmGluR4 and chimeric G protein; EC10 glutamate; intracellular calcium (Fluo4AM); read-out: mean EC50 of agonist/positive allosteric modulator activity on mGluR4
# Experimental: Human mGluR4 Positive Allosteric Modulator Evaluation Using Ca^++ Functional Assay
# Compounds of the present invention were tested successively for their agonist and positive allosteric modulator activities on human mGluR4 transiently over-expressed in HEK-293 cells. They exert agonist activity if, by themselves in absence of the endogenous glutamate, they are able to activate mGluR4; and they exert positive allosteric modulator activity if they increase the action of the endogenous glutamate.
# Cell Culture and Transfection
# HEK-293 cells were maintained in Modified Eagle's Medium supplemented with 10% Foetal Calf Serum, 1% Penicillin/Streptomycin and 1% non essential amino acids at 37° C./5% CO2.
# Cells were co-transfected by electroporation with two DNA plasmids encoding hmGluR4 and a chimeric G protein allowing redirection of the activation signal to intracellular calcium pathway. Cells were plated after transfection onto polyornithine coated, clear bottom, black-walled, 96-well plates and cultured for 24 h.
# Calcium Assay EC50 Determination
# Receptor activity was detected by changes in intracellular calcium measured using the fluorescent Ca^2+ sensitive dye, Fluo4AM (Molecular Probes).
# The day of the assay, medium was aspirated and replaced during 3 hours by medium without serum supplemented with 1% Glutamax, 1% Penicillin/Streptomycin and 1% non essential amino acids. Then, cells were washed with freshly prepared buffer B (HBSS 1×(PAA), Hepes 20 mM, MgSO4-7H2O 1 mM, Na2CO3 3.3 mM, CaCl2-2H2O 1.3 mM, 0.5% BSA, Probenecid 2.5 mM) and loaded at 37° C. in 5% CO2 for 1.5 hours with buffer B containing 1 μM Fluo4AM 0.1 mg/mL Pluronic Acid, 7 μg/mL Glutamate Pyruvate Transaminase and 2 mM sodium pyruvate. Afterwards cells were washed twice with buffer B and 50 μL of this buffer were added to each well. Addition of compounds and intracellular Ca^2+ measurements (excitation 485 nm, emission 525 nm) were performed by the fluorescence microplate reader FlexStation (Molecular Devices).
# Agonist and positive allosteric modulator activities of compounds were consecutively evaluated on the same cells plate. Agonist activity was first tested during 60 s with the addition of compound alone on the cells. Then, the cells were stimulated by an EC10 glutamate concentration and fluorescence recorded for additional 60 s. EC10 glutamate concentration is the concentration giving 10% of the maximal glutamate response. Agonist and/or positive allosteric modulator activity(ies) were evaluated in comparison to basal signal evoked by EC10 glutamate alone.
# For EC50 determination, a dose-response test was performed using 6 to 9 concentrations of each compound of the invention. Dose-response curves were fitted using the sigmoidal dose-response (variable slope) analysis in GraphPad Prism program (Graph Pad Inc) and EC50 of agonist/positive allosteric modulator activity was calculated. Dose-response experiments were all performed in duplicate, two times independently.
# T1 sequence (Q14833 33-912): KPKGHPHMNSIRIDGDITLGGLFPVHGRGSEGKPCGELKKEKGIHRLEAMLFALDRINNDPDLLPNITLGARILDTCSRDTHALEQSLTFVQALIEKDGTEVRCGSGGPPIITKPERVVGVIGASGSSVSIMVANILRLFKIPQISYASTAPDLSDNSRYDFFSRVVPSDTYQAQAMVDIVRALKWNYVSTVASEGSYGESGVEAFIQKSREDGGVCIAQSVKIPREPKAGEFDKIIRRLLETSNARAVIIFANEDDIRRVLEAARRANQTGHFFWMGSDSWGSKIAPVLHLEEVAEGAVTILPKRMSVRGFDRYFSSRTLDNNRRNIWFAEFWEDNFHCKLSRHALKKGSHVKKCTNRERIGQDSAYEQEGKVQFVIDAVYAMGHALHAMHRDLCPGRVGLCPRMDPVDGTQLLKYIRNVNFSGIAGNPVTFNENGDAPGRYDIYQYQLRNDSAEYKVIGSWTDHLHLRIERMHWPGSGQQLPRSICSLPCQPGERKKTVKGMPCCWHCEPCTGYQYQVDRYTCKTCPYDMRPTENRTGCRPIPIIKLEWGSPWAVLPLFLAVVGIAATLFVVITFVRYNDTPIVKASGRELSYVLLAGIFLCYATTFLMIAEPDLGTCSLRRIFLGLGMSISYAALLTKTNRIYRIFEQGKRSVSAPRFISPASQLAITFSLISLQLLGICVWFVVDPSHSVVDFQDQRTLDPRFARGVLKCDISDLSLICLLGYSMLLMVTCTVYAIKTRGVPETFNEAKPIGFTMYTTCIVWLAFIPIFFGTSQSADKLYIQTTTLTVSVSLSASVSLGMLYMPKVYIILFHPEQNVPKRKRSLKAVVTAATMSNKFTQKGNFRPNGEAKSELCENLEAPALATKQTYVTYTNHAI
row,Compound,EC50
1,"ON=c1cc(-c2cc3ccccc3cn2)oc2cc(Br)ccc12 (mixture of isomers) [Example 2, 7-bromo-2-isoquinolin-3-yl-chromen-4-one oxime]",< 5000 nM
2,"ON=c1cc(-c2cc3ccccc3cn2)oc2ccc(C3CC3)cc12 (mixture of isomers) [Example 34, 6-cyclopropyl-2-isoquinolin-3-yl-chromen-4-one oxime]",< 5000 nM
3,"ON=c1cc(-c2cc3cccn3cn2)oc2ccc(Br)cc12 (mixture of isomers) [Example 66, 6-bromo-2-Pyrrolo[1,2-c]pyrimidin-3-yl-chromen-4-one oxime]",< 5000 nM
4,"Cc1c(-c2cc3ccccc3cn2)oc2ccccc2c1=NO [Example 71, 2-Isoquinolin-3-yl-3-methyl-chromen-4-one oxime]",< 5000 nM
5,"ON=c1cc(-c2cc3ccn(O)c3cn2)oc2ccccc12 [Example 76, 2-(1-Hydroxy-7H-pyrrolo[2,3-c]pyridin-5-yl)-chromen-4-one oxime]",< 5000 nM
6,"COn1ccc2cc(-c3cc(=NO)c4ccccc4o3)ncc21 [Example 78, 2-(1-Methoxy-1H-pyrrolo[2,3-c]pyridin-5-yl)-chromen-4-one oxime]",< 5000 nM
7,"CC1CCCN1CCOc1ccc2oc(-c3cc4cccn4cn3)cc(=NO)c2c1 (centres unmarked) [Example 92, 6-[2-(2-methyl-pyrrolidin-1-yl)-ethoxy]-2-pyrrolo[1,2-c]pyrimidin-3-yl-chromen-4-one oxime, hydrochloride]",< 5000 nM
8,"C[C@@H]1CN(CCOc2ccc3oc(-c4cc5cccn5cn4)cc(=NO)c3c2)C[C@H](C)O1 [Example 112, 6-[2-(cis-2,6-dimethyl-morpholin-4-yl)-ethoxy]-2-pyrrolo[1,2-c]pyrimidin-3-yl-chromen-4-one oxime, hydrochloride]",< 1000 nM
9,"ON=c1cc(-c2cc3cccn3cn2)oc2ccc(OCCN3CCC(C(F)(F)F)CC3)cc12 [Example 113, 2-pyrrolo[1,2-c]pyrimidin-3-yl-6-[2-(4-trifluoromethyl-piperidin-1-yl)-ethoxy]chromen-4-one oxime, hydrochloride]",< 1000 nM
10,"CCN1CCN(CCOc2ccc3oc(-c4cc5cccn5cn4)cc(=NO)c3c2)CC1.Cl.Cl [Example 121, 6-[2-(4-ethyl-piperazin-1-yl-ethoxy]-2-pyrrolo[1,2-c]pyrimidin-3-yl-chromen-4-one oxime, dihydrochloride]",< 5000 nM
11,"ON=c1cc(-c2cc3sccc3cn2)oc2ccc(OCCc3ccc(F)cc3)cc12 [Example 130, 6-[2-(4-Fluoro-phenyl)-ethoxy]-2-thieno[3,2-c]pyridin-6-yl-chromen-4-one oxime]",< 1000 nM
12,"ON=c1cc(-c2cc3cccn3cn2)oc2cc(OCCN3CCOCC3)ccc12 [Example 142, 7-(2-Morpholin-4-yl-ethoxy)-2-pyrrolo[1,2-c]pyrimidin-3-yl-chromen-4-one oxime, hydrochloride]",< 1000 nM
13,"ON=c1cc(-c2cc3cccn3cn2)oc2cc(OCCCN3CCOCC3)ccc12 [Example 143, 7-(3-Morpholin-4-yl-propoxy)-2-pyrrolo[1,2-c]pyrimidin-3-yl-chromen-4-one oxime hydrochloride]",< 1000 nM
14,"O=C(COc1ccc2oc(-c3cc4cccn4cn3)cc(=NO)c2c1)Nc1ccc(F)cc1 [Example 150, N-(4-Fluoro-phenyl)-2-{4-hydroxyimino-2-pyrrolo[1,2-c]pyrimidin-3-yl-4H-chromen-6-yloxy}-acetamide]",< 1000 nM
15,"O=C(COc1ccc2oc(-c3cc4cccn4cn3)cc(=NO)c2c1)Nc1ccc(F)cn1 [Example 152, N-(5-Fluoro-pyridin-2-yl)-2-{4-hydroxyimino-2-pyrrolo[1,2-c]pyrimidin-3-yl-4H-chromen-6-yloxy}-acetamide]",< 1000 nM
16,"ON=c1cc(-c2cc3cccn3cn2)oc2cccc(OCCCN3CCOCC3)c12 [Example 157, 5-(3-Morpholin-4-yl-propoxy)-2-pyrrolo[1,2-c]pyrimidin-3-yl-chromen-4-one oxime, hydrochloride]",< 5000 nM
17,"ON=c1cc(-c2cc3cccn3cn2)oc2ccc(OCCCOc3ccc(F)cc3)cc12 [Example 161, 6-[3-(4-Fluoro-phenoxy)-propoxy]-2-pyrrolo[1,2-c]pyrimidin-3-yl-chromen-4-one oxime]",< 1000 nM
18,"ON=c1cc(-c2cc3cccn3cn2)oc2ccc(OCCCOc3ccccc3)cc12 [Example 162, 6-(3-Phenoxy-propoxy)-2-pyrrolo[1,2-c]pyrimidin-3-yl-chromen-4-one oxime]",< 1000 nM
19,"ON=c1cc(-c2cc3cccn3cn2)oc2ccc(OCCCOc3cccc(F)c3)cc12 [Example 163, 6-[3-(3-Fluoro-phenoxy)-propoxy]-2-pyrrolo[1,2-c]pyrimidin-3-yl-chromen-4-one oxime]",< 1000 nM
20,"ON=c1cc(-c2cc3cccn3cn2)oc2ccc(OCCCOc3ccc(F)c(F)c3)cc12 [Example 164, 6-[3-(3,4-Difluoro-phenoxy)-propoxy]-2-pyrrolo[1,2-c]pyrimidin-3-yl-chromen-4-one oxime]",< 1000 nM

# Next, values leading:
row,EC50,Compound
1,< 1000 nM,"ON=c1cc(-c2cc3ccccc3cn2)oc2ccccc12 (mixture of isomers) [Example 1, 2-isoquinolin-3-yl-chromen-4-one oxime]"
2,< 1000 nM,"ON=c1cc(-c2cc3ccccc3cn2)oc2ccc(Br)cc12 (mixture of isomers) [Example 4, 6-bromo-2-isoquinolin-3-yl-chromen-4-one oxime]"
3,< 1000 nM,"Cc1ccc2oc(-c3cc4ccccc4cn3)cc(=NO)c2c1 (mixture of isomers) [Example 5, 2-isoquinolin-3-yl-6-methyl-chromen-4-one oxime]"
4,< 1000 nM,"CNc1cccc(C#Cc2ccc3c(=NO)cc(-c4cc5ccccc5cn4)oc3c2)c1 (mixture of isomers) [Example 51, 2-Isoquinolin-3-yl-7-{3-methylaminophenylethynyl}-chromen-4-one oxime]"
5,< 1000 nM,"ON=c1cc(-c2cc3nccn3cn2)oc2ccccc12 (mixture of isomers) [Example 73, 2-Imidazo[1,2-c]pyrimidin-7-yl-chromen-4-one oxime]"
6,< 1000 nM,"ON=c1cc(-c2cc3cnccc3cn2)oc2ccccc12 [Example 61, 2-[2,6]Naphthyridin-3-yl-chromen-4-one oxime]"
7,< 1000 nM,"COCCOc1ccc2oc(-c3cc4cccn4cn3)cc(=NO)c2c1 [Example 67, 6-methoxyethoxy-2-Pyrrolo[1,2-c]pyrimidin-3-yl-chromen-4-one oxime]"
8,< 1000 nM,"ON=c1cc(-c2cc3cccn3cn2)oc2ccc(O)cc12 [Example 81, 6-Hydroxy-2-pyrrolo[1,2-c]pyrimidin-3-yl-chromen-4-one oxime]"
9,< 1000 nM,"ON=c1cc(-c2cc3cccn3cn2)oc2ccc(OCCN3CCC(F)(F)CC3)cc12 [Example 103, hydrochloride]"
10,< 1000 nM,"ON=c1cc(-c2cc3cccn3cn2)oc2ccc(OCCn3ccnc3)cc12 [Example 105, 6-(2-imidazol-1-O-ethoxy)-2-pyrrolo[1,2-c]pyrimidin-3-yl-chromen-4-one oxime]"
11,< 1000 nM,"ON=c1cc(-c2cc3cccn3cn2)oc2ccc(CCCN3CCOCC3)cc12 [Example 106, 6-(3-morpholin-4-yl-propyl)-2-pyrrolo[1,2-c]pyrimidin-3-yl-chromen-4-one oxime, hydrochloride]"
12,< 1000 nM,ON=c1cc(-c2cc3cccn3cn2)oc2ccc(/C=C\CN3CCOCC3)cc12 [Example 107]
13,< 1000 nM,"ON=c1cc(-c2cc3cccn3cn2)oc2ccc(OCCc3ccc(F)cc3)cc12 [Example 109, 6-[2-(4-fluoro-phenyl)-ethoxy]-2-pyrrolo[1,2-c]pyrimidin-3-yl-chromen-4-one oxime, hydrochloride]"
14,< 1000 nM,"ON=c1cc(-c2cc3cccn3cn2)oc2ccc(OCCN3C[C@@H]4C[C@H]3CO4)cc12 [Example 111, 6-[(1S,4S)-2-(2-oxa-5-aza-bicyclo[2.2.1]hept-5-yl)-ethoxy]-2-pyrrolo[1,2-c]pyrimidin-3-yl-chromen-4-one oxime, hydrochloride]"
